Patent US4088772A, “Methanodibenzocycloheptapyrroles” (E. I. Du Pont de Nemours and Company, priority 1975, dated 1978)
Where a name gives a salt, the structure may show the parent alone. Read-outs that look alike come from different tables or passages of the source.

Tests used:
[1] = system: female white mice; test: animal or person; settings: oral; for ED50: Mus musculus, po; for ED50 / Catatonia ED50 / Exploratory Loss Visual ED50 / Muscle Tone ED50 / Ptosis ED50 / Reflexes Grip ED50 / Reflexes Lift ED50 / Reflexes Pinna ED50 / Tremors ED50: mice; for LD50 / Catatonia ED50 / Exploratory Loss Visual ED50 / Muscle Tone ED50 / Ptosis ED50 / Reflexes Grip ED50 / Reflexes Lift ED50 / Reflexes Pinna ED50 / Tremors ED50: Table 1; for LD50: 24-hour value
Description: (§1) Groups of five Carworth CF1 S female mice, 16-20 g each, were fasted 16-22 hours before use. The mice were put in opaque plastic "shoe-box" cages 15-30 min. before injection, and then treated orally with 4, 12, 36, 108 and 324 mg/kg of the compound to be tested as a 13 mg/ml solution in 1% aqueous distilled water solution of methylcellulose (Methocel®). Each dose was given in a standard volume of 0.45 ml. Observations were made at 0.5, 2 and 24 hours after dosing. ED50 values were calculated for each parameter including death (LD50). The ED50 and LD50 values are the doses at which 50% of the naimals would be expected to respond.
(§2) The mouse is placed on a stainless steel wire mesh screen (8 × 12 inches, 3 mesh per inch, 1/4 inch mesh openings) "shoe-box" lid (1 inch high) and is observed for normal activities, such as nose movements, head movements with apparent visual examination of the area, and/or walking around on the screen. Absence of or marked depression of these activities for 5 seconds constitutes loss of exploratory activity.
(§3) The mouse is picked up by the tail and placed on the screen with its head facing the observer. Bilateral eyelid closure of 50% or more two seconds after placement is considered ptosis.
(§4) The mouse is placed with its front paws on the edge of a stainless steel "shoe-box" cover, 1 inch high, covered with adhesive tape. Failure to remove both paws from the cover's edge within 5 seconds constitutes catatonia.
(§5) The observer gently strokes the abdominal musculature of the mouse with thumb and forefinger. Flaccidity (or rarely, tenseness) is recorded.
(§6) The mouse is gently swung by the tail toward a horizontal 12 gauge wire tautly stretched 25 cm above the bench. After the mouse grasps the wire with its forepaws, its posterior end is held directly below the wire. A normal mouse grasps the wire with its forepaws and immediately lifts its hind limbs to the wire. Failure to grasp the wire with the forepaws in both trials constitutes loss of the grip reflex; failure to lift the hind limbs to grasp the wire with at least one hind paw within 5 seconds constitutes loss of the lift reflex.
(§7) The mouse is placed on the bar 10-20 cm horizontally and 9 cm vertically from a Galton whistle adjusted for 13 kc (5 mm on the whistle scale) and is subjected to several short bursts of sound.
(§8) An effective tranquilizer should induce little or no tremor response. […] Tremors include fine or coarse and intermittent or continuous tremors.

[2] = in vivo; settings: mouse, in vivo, po
Description: as §1, §2, §3, §4, §5, §6, §7, §8

[3] = system: phenylquinone-induced writhing; test: Phenylquinone writhing test (analgesia); format: in vivo, mouse (Carworth CF1 S female); settings: for ED50: Mus musculus
Excerpt: This mouse test is predictive of analgesic response in humans. [E. Siegmund, R. Cadmus and G. Lee, Proc. Soc.
ED50 values were obtained graphically from the data.

[4] = read-out: Catatonia ED50, Table 1
[5] = read-out: Exploratory Loss Visual ED50, Table 1
[6] = read-out: Muscle Tone ED50, Table 1
[7] = read-out: Reflexes Grip ED50, Table 1
[8] = read-out: Reflexes Lift ED50, Table 1
[9] = read-out: Reflexes Pinna ED50, Table 1
[10] = read-out: Catatonia ED50, Table III
[11] = read-out: Exploratory Loss Visual ED50, Table III
[12] = read-out: Muscle Tone ED50, Table III
[13] = read-out: Ptosis ED50, Table III
[14] = read-out: Reflexes Grip ED50, Table III
[15] = read-out: Reflexes Lift ED50, Table III
[16] = read-out: Reflexes Pinna ED50, Table III

Molecule | ED50 [1, 4] [mg/kg] | ED50 [1, 5] [mg/kg] | ED50 [1, 6] [mg/kg] | ED50 ([1]; read-out: Ptosis ED50, Table 1) [mg/kg] | ED50 [1, 7] [mg/kg] | ED50 [1, 8] [mg/kg] | ED50 [1, 9] [mg/kg] | LD50 at 24 h [2] [mg/kg] | ED50 [1, 10] [mg/kg] | ED50 [1, 11] [mg/kg] | ED50 [1, 12] [mg/kg] | ED50 [1, 13] [mg/kg] | ED50 [1, 14] [mg/kg] | ED50 [1, 15] [mg/kg] | ED50 [1, 16] [mg/kg] | ED50 ([3]; po, Table III, mice) [mg/kg] | ED50 [2] [mg/kg] | ED50 ([3]; po, Table 1, mice) [mg/kg] | also measured
c1ccc2c(c1)[C@@H]1C[C@@]3(CN(C4CC4)C[C@H]23)c2ccccc21 (relative stereo) [Example 46, 2-Cyclopropyl-2,3,8,12b-tetrahydro-1H-3a,8-methanodibenzo[3,4:6,7]cyclohepta[1,2-c]pyrrole] | 200 | 200 | 200 | 60 | 300 | 200 | 300 | > 324 |  |  |  |  |  |  |  |  |  |  | ED50 ([2]; Tremors ED50, Table 1, mice): > 324 mg/kg; ED50 ([3]; Table 1, oral, mice): 90 mg/kg
OCc1ccc2c(c1)[C@]13C[C@H]2c2ccccc2[C@H]1CN(CC1CCCC1)C3 (relative stereo) [Example 86, 2-Cyclopentylmethyl-2,3,8,12b-tetrahydro-1H-3a,8-methanodibenzo[3,4:6,7]cyclohepta[1,2-c]pyrrole-5-methanol Hydrochloride] |  |  |  |  |  |  |  | > 324 | 60 | 12 | 60 | 7 | 200 | 36 | 20 | 26 |  |  | 
c1ccc2c(c1)[C@@H]1C[C@@]3(CN(CC4C5CC6CC(C5)CC4C6)C[C@H]23)c2ccccc21 (relative stereo) [Example 53, 2-(2-Adamantylmethyl)-2,3,8,12b-tetrahydro-1H-3a,8-methanodibenzo[3,4:6,7]cyclohepta[1,2-c]pyrrole] | 36 | 60 | 100 | 300 | > 324 | 300 | 100 | > 324 |  |  |  |  |  |  |  |  | > 524 | 94 | 
c1coc(CN2C[C@@H]3c4ccccc4[C@@H]4C[C@@]3(C2)c2ccccc24)c1 (relative stereo) [Example 42, 2-(2-Furylmethyl)-2,3,8,12b-tetrahydro-1H-3a,8-methanodibenzo[3,4:6,7]cyclohepta[1,2-c]pyrrole] | 36 | 60 | 20 | 20 | > 324 | 200 | 60 | 300 |  |  |  |  |  |  |  |  | > 324 | 26 | 
CC(O)c1ccc2c(c1)[C@]13C[C@H]2c2ccccc2[C@H]1CN(CC1CCCC1)C3 (stereo partly drawn) [Example 67, 5-(α-Hydroxyethyl)-2-cyclopentylmethyl-2,3,8,12b-tetrahydro-1H-3a,8-methanodibenzo[3,4:6,7]cyclohepta[1,2-c]-pyrrole Hydrochloride] |  |  |  |  |  |  |  | > 450 | 5 | 5 | 6 | 3.6 | 187 | 21 | 5.6 | 3.4 |  |  | 
c1ccc(CCN2C[C@@H]3c4ccccc4[C@@H]4C[C@@]3(C2)c2ccccc24)cc1 (relative stereo) [Example 39, 2-(2-Phenylethyl)-2,3,8,12b-tetrahydro-1H-3a,8-methanodibenzo[3,4:6,7]cyclohepta[1,2-c]pyrrole] | 100 | 200 | > 324 | 200 | > 324 | 100 | 100 | > 324 |  |  |  |  |  |  |  |  | 300 | 22 | 
C1=C[C@@H]2C[C@H]1C[C@H]2CN1C[C@@H]2c3ccccc3[C@@H]3C[C@@]2(C1)c1ccccc13 (relative stereo) [Example 37, 2-(2-Exo-bicyclo[2.2.1]hept-5-enylmethyl)-2,3,8,12b-tetrahydro-1H-3a,8-methanodibenzo[3,4:6,7]cyclohepta[1,2-c]pyrrole] | 7 | 7 | 4 | ≤ 4 | 200 | 12 | 20 | 300 |  |  |  |  |  |  |  |  | > 324 | 2.4 | 
CC(=O)c1ccc2c(c1)[C@]13C[C@H]2c2ccccc2[C@H]1CN(CC1CCCC1)C3 (relative stereo) [Example 66, 5-Acetyl-2-cyclopentylmethyl-2,3,8,12b-tetrahydro-1H3a,8-methanodibenzo[3,4:6,7]cyclohepta[1,2-c]pyrrole Hydrochloride] |  |  |  |  |  |  |  | > 324 | 12 | 7 | 12 | < 4 | 300 | 20 | 12 | 3.1 |  |  | 
N#Cc1ccc2c(c1)[C@]13C[C@H]2c2ccccc2[C@H]1CN(CC1CCCC1)C3 (relative stereo) [Example 85, 5-Cyano-2-cyclopentylmethyl-2,3,8,12b-tetrahydro-1H-3a,8-methanodibenzo[3,4:6,7]cyclohepta[1,2-c]-pyrrole Hydrochloride] |  |  |  |  |  |  |  | 300 | 15 | 4.4 | 15 | 4.4 | > 324 | 17 | 9.7 | 1.7 |  |  | 
c1ccc2c(c1)[C@@H]1C[C@@]3(CN(C4CCC4)C[C@H]23)c2ccccc21 (relative stereo) [Example 47, 2-Cyclobutyl-2,3,8,12b-tetrahydro-1H-3a,8-methanodibenzo[3,4:6,7]cyclohepta[1,2-c]pyrrole] | 60 | 60 | 60 | 36 | 200 | 60 | 36 | > 324 |  |  |  |  |  |  |  |  |  |  | ED50 ([2]; Tremors ED50, Table 1, mice): > 324 mg/kg; ED50 ([3]; Table 1, oral, mice): 9.6 mg/kg
COC(=O)c1ccc2c(c1)[C@]13C[C@H]2c2ccccc2[C@H]1CN(CC1CCCC1)C3 (relative stereo) [Example 74, 2-Cyclopentylmethyl-2,3,8,12b-tetrahydro-1H-3a,8-methanodibenzo[3,4:6,7]cyclohepta[1,2-c]pyrrole-5-carboxylic Acid Hydrochloride, Methyl Ester] |  |  |  |  |  |  |  | > 324 | 36 | 36 | 36 | < 4 | > 324 | 36 | 7 | 11 |  |  | 
CC1CCCC1CN1C[C@@H]2c3ccccc3[C@@H]3C[C@@]2(C1)c1ccccc13 (stereo partly drawn) [Example 51, 2-(2-Methylcyclopentylmethyl)-2,3,8,12b-tetrahydro-1H-3a,8-methanodibenzo[3,4:6,7]cyclohepta[1,2-c]pyrrole] | 60 | 100 | 60 | 36 | 300 | 60 | 36 | > 324 |  |  |  |  |  |  |  |  | > 324 | 10 | 
c1ccc2c(c1)C1CC3(CN(CC4CCCC4)CC23)c2ccccc21 (single isomer, unassigned; (+)) [(+)-Cyclopentylmetnyl, 2-Cyclopentylmethyl-2,3,8,12b-tetrahydro-trans-1H,-3a,8-methanodibenzo[3,4:6,7]cyclohepta[1,2-c]pyrrole] |  |  |  |  |  |  |  |  |  |  |  |  |  |  |  |  |  |  | LD50 [1]: > 324 mg/kg; Catatonia ED50 [1]: 36 mg/kg; Exploratory Loss Visual ED50 [1]: 36 mg/kg; Muscle Tone ED50 [1]: 60 mg/kg; Ptosis ED50 [1]: 20 mg/kg; Reflexes Grip ED50 [1]: 200 mg/kg; Reflexes Lift ED50 [1]: 60 mg/kg; Reflexes Pinna ED50 [1]: 20 mg/kg; Tremors ED50 [1]: > 324 mg/kg; Phenylquinone Analgesia ED50 ([3]; Table 1, oral, mice): 24 mg/kg
Nitro-2-methyl-2,3,8,12b-tetrahydro-1H-3a,8-methanodibenzo[3,4:6,7]cyclohepta[1,2-c]pyrrole Hydrochloride [Example 57] |  |  |  |  |  |  |  |  |  |  |  |  |  |  |  |  |  |  | LD50 [1]: 200 mg/kg; Catatonia ED50 [1]: > 324 mg/kg; Exploratory Loss Visual ED50 [1]: 20 mg/kg; Muscle Tone ED50 [1]: 60 mg/kg; Ptosis ED50 [1]: 12 mg/kg; Reflexes Grip ED50 [1]: > 324 mg/kg; Reflexes Lift ED50 [1]: > 324 mg/kg; Reflexes Pinna ED50 [1]: 12 mg/kg; Tremors ED50 [1]: 100 mg/kg; Phenylquinone Analgesia ED50 ([3]; Table 1, oral, mice): 5 mg/kg
